The record followed here is patent US9896441B2 (Lycera Corporation, priority 2014, dated 2018).

By EC50 is commonly meant the midpoint of the concentration-response curve. Higher therefore signals weaker potency.

One test has as its target T1, RORγ-LBD (Homo sapiens, UniProt P51449).
T1 construct: made in house; host or cells: SF9 cells (baculovirus); used as diluted lysate
T1 sequence (P51449 269-508 limits assumed): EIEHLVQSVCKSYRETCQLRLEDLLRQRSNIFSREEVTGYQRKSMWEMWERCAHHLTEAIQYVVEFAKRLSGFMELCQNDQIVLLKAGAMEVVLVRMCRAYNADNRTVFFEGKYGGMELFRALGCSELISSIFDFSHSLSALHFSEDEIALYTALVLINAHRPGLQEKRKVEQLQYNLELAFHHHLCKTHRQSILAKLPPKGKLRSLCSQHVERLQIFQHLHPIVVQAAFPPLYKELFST
Put plainly: RORγ-Ligand Binding Domain (LBD) TR-FRET Assay.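 For TR-FRET Assay Max Response: 665/615 nm signal ratio set to 100 without ursolic acid or test compound.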 It counts as biochemical. The following applies: RORγ-LBD TR-FRET. The protocol:
Assay procedures and results are described below.
HIS-tagged RORγ-LBD protein was expressed in SF9 cells using a baculovirus expression system. The lysate was diluted in assay buffer (50 mM Tris pH 7.0, 50 mM KCl, 1 mM EDTA, 0.1 mM DTT, 0.01% BSA) to obtain RORγ-LBD final concentration of ˜3 nM in a 384-well assay plate (need to titrate for each batch of protein).
A stock of biotinylated-LXXLL peptide from coactivator SRC1 (Biotin-[…]) was prepared in assay buffer and added to each well (200 nM final concentration). […] RORγ antagonist ursolic acid was also included at a final concentration of 2 μM. Compounds were diluted in DMSO and further diluted in assay buffer with a final DMSO concentration at 1%.
With `O=S(=O)(c1cccc(C(F)(F)F)c1)N1CCCc2cc(OC3CCCCC3)ccc21` [Example 25L, 6-(cyclohexyloxy)-1-((3-(trifluoromethyl)phenyl)sulfonyl)-1,2,3,4-tetrahydroquinoline], the concentration giving a half-maximal response (EC50) is < 500 nM.

Take `O=S(=O)(c1cccc(C(F)(F)F)c1)N1CCCc2cc(O[C@@H]3CCc4ccccc43)ccc21` [Example 25U, (R)-6-((2,3-dihydro-1H-inden-1-yl)oxy)-1-((3-(trifluoromethyl)-phenyl)sulfonyl)-1,2,3,4-tetrahydroquinoline]: the EC50 is > 10000 nM. Still for that read-out and setting: under `COC(=O)CC[C@H]1CN(S(=O)(=O)c2cc(C(F)(F)F)cnc2OC(C)C)c2cc(/C=C/c3c(F)cccc3Cl)ccc2O1` [Example 89FL, methyl (S,E)-3-(6-(2-chloro-6-fluorostyryl)-4-((2-isopropoxy-5-(trifluoromethyl)pyridin-3-yl)sulfonyl)-3,4-dihydro-2H-benzo[b][1,4]oxazin-2-yl)propanoate] stands 500 to 5000 nM; under `COc1cc(S(=O)(=O)N2CCCc3cc(OCc4c(F)cccc4Cl)ccc32)ccc1F` [Example 25O, 6-((2-chloro-6-fluorobenzyl)oxy)-1-((4-fluoro-3-methoxyphenyl)sulfonyl)-1,2,3,4-tetrahydroquinoline], < 500 nM. As to `COc1cc(S(=O)(=O)N2CCCc3ccc(O[C@@H]4CCc5ccccc54)cc32)ccc1F` [Example 25B, (R)-7-((2,3-dihydro-1H-inden-1-yl)oxy)-1-((4-fluoro-3-methoxyphenyl)sulfonyl)-1,2,3,4-tetrahydroquinoline], the EC50 is < 500 nM. Turning to `CCn1cc(S(=O)(=O)N2C[C@H](CNC(C)=O)Oc3ccc(NCc4c(F)cccc4Cl)cc32)c(OCCO)n1` [Example 28E], the EC50 is < 500 nM. With `O=C(O)CC[C@H]1CN(S(=O)(=O)c2cccc(OC(F)F)c2)c2cc(/C=C/c3nccnc3Cl)ccc2O1` [Example 89DS, (S,E)-3-(6-(2-(3-chloropyrazin-2-yl)vinyl)-4-((3-(difluoromethoxy)phenyl)sulfonyl)-3,4-dihydro-2H-benzo[b][1,4]-oxazin-2-yl)propanoic acid], the EC50 was > 10000 nM. For `Cc1noc(C)c1/C=C/c1ccc2c(c1)N(S(=O)(=O)c1cccc(C(F)(F)F)c1)C[C@H](CCC(=O)O)O2` [Example 89BR, (S,E)-3-(6-(2-(3,5-dimethylisoxazol-4-yl)vinyl)-4-((3-(trifluoromethyl)phenyl)sulfonyl)-3,4-dihydro-2H-benzo[b][1,4]-oxazin-2-yl)propanoic acid], the EC50 was > 10000 nM. In the case of `COc1cc(S(=O)(=O)N2CCCc3ccc(O[C@H]4CCc5ccccc54)cc32)ccc1F` [Example 25A, (S)-7-((2,3-dihydro-1H-inden-1-yl)oxy)-1-((4-fluoro-3-methoxyphenyl)sulfonyl)-1,2,3,4-tetrahydroquinoline], the EC50 was < 500 nM.

Regarding `COc1cc(S(=O)(=O)N2CCCc3ccc(OCc4c(Cl)cccc4C4CC4)cc32)ccc1F` [Example 25S, 7-((2-chloro-6-cyclopropylbenzyl)oxy)-1-((4-fluoro-3-methoxyphenyl)sulfonyl)-1,2,3,4-tetrahydroquinoline], the EC50 was < 500 nM. For `O=C(O)CC[C@H]1CN(S(=O)(=O)c2cccc(C(F)(F)F)c2)c2cc(/C=C/c3c[nH]nc3C(F)(F)F)ccc2O1` [Example 89BT, (S,E)-3-(6-(2-(3-(trifluoromethyl)-1H-pyrazol-4-yl)vinyl)-4-((3-(trifluoromethyl)phenyl)-sulfonyl)-3,4-dihydro-2H-benzo[b][1,4]oxazin-2-yl)propanoic acid], the 50% effective concentration (EC50) is > 10000 nM. As to `COc1cc(S(=O)(=O)N2CCCc3ccc(OCc4c(F)cccc4C4CC4)cc32)ccc1F` [Example 25T, 7-((2-cyclopropyl-6-fluorobenzyl)oxy)-1-((4-fluoro-3-methoxyphenyl)sulfonyl)-1,2,3,4-tetrahydroquinoline], the EC50 is < 500 nM.

Consider `CCOc1nn(CC)cc1S(=O)(=O)N1C[C@H](CNC(C)=O)Oc2ccc(NCc3c(F)cccc3Cl)cc21` [Example 28G], for which the EC50 was < 500 nM. Regarding `Cn1cc(/C=C/c2ccc3c(c2)N(S(=O)(=O)c2cccc(C(F)(F)F)c2)C[C@H](CCC(=O)O)O3)c(C(F)(F)F)n1` [Example 89BY, (S,E)-3-(6-(2-(1-methyl-3-(trifluoromethyl)-1H-pyrazol-4-yl)vinyl)-4-((3-(trifluoromethyl)-phenyl)sulfonyl)-3,4-dihydro-2H-benzo[b][1,4]oxazin-2-yl)propanoic acid], the half-maximal effective concentration (EC50) is > 10000 nM.

For the compound `Cc1cc2c(cc1OCc1c(F)cccc1Cl)N(S(=O)(=O)c1cccc(C(F)(F)F)c1)CCC2` [Example 28D], the EC50 was < 500 nM. As for `Cc1nn(C(F)F)cc1S(=O)(=O)N1CC(CO)Cc2ccc(OCc3c(F)cccc3Cl)cc21` (centres unmarked) [Example 9D], the EC50 is < 500 nM. The same measure, in the same setting: under `O=S(=O)(c1cccc(C(F)(F)F)c1)N1CCCc2cc(OCCc3ccccc3)ccc21` [Example 25N, 6-phenethoxy-1-((3-(trifluoromethyl)phenyl)sulfonyl)-1,2,3,4-tetrahydroquinoline] stands < 500 nM.

Staying with this test, now noted: RORγ-LBD TR-FRET assay.
On to `C/C(=C\c1ccc2c(c1)CC(CC(=O)O)CN2S(=O)(=O)c1cccc(C(F)(F)F)c1)c1c(F)cccc1Cl` (centres unmarked) [Example 150, (E)-2-(6-(2-(2-Chloro-6-fluorophenyl)prop-1-en-1-yl)-1-((3-(trifluoromethyl)phenyl)sulfonyl)-1,2,3,4-tetrahydroquinolin-3-yl)acetic acid], for which the EC50 was > 10000 nM. Turning to `CCOC(=O)C(C)(C)CC1CC(S(=O)(=O)c2cccc(C(F)(F)F)c2)c2cc(OCc3c(F)cccc3Cl)ccc2O1` (centres unmarked) [Example 186D, ethyl 3-(6-((2-chloro-6-fluorobenzyl)oxy)-4-((3-(trifluoromethyl)phenyl)-sulfonyl)chroman-2-yl)-2,2-dimethylpropanoate], the concentration for a half-maximal effect (EC50) is < 500 nM. Regarding `CCOC(=O)C(C)(C)CC1CC(S(=O)(=O)c2ccc(F)c(OC)c2)c2cc(OCc3c(F)cccc3Cl)ccc2O1` (centres unmarked) [Example 185, Ethyl 3-(6-((2-chloro-6-fluorobenzyl)oxy)-4-((4-fluoro-3-methoxyphenyl)sulfonyl)chroman-2-yl)-2,2-dimethylpropanoate], the EC50 was < 500 nM. Regarding `CNC(=O)N[C@@H]1Cc2ccc(/C=C(\C)c3c(F)cccc3Cl)cc2N(S(=O)(=O)c2cccc(C(F)(F)F)c2)[C@@H]1C` [Example 145, 1-((2R,3R)-7-((E)-2-(2-Chloro-6-fluorophenyl)prop-1-en-1-yl)-2-methyl-1-((3-(trifluoromethyl)phenyl)sulfonyl)-1,2,3,4-tetrahydroquinolin-3-yl)-3-methylurea], the EC50 was < 500 nM. Take `COc1cc(S(=O)(=O)N2c3cc(OCc4c(F)cccc4Cl)ccc3C[C@@H](CO)[C@H]2C)ccc1F` [Example 151, ((2R,3R)-7-((2-Chloro-6-fluorobenzyl)oxy)-1-((4-fluoro-3-methoxyphenyl)sulfonyl)-2-methyl-1,2,3,4-tetrahydroquinolin-3-yl)methanol]: the half-maximal effective concentration (EC50) was < 500 nM. On the same count and under the same terms, under `COC(=O)C(C)(C)C[C@@H]1Cc2ccc(/C=C(\C)c3c(F)cccc3Cl)cc2N(S(=O)(=O)c2ccc(F)c(OC)c2)C1` [Example 154B, methyl (S,E)-3-(7-(2-(2-chloro-6-fluorophenyl)prop-1-en-1-yl)-1-((4-fluoro-3-methoxyphenyl)sulfonyl)-1,2,3,4-tetrahydroquinolin-3-yl)-2,2-dimethylpropanoate] stands < 500 nM.

The same test, now with this note: RORγ-LBD TR-FRET assay, maximum response.
In the case of `CCOC(=O)C(C)(C)CC1CC(S(=O)(=O)c2cccc(C(F)(F)F)c2)c2cc(OCc3c(F)cccc3Cl)ccc2O1` (centres unmarked) [Example 186D, ethyl 3-(6-((2-chloro-6-fluorobenzyl)oxy)-4-((3-(trifluoromethyl)phenyl)-sulfonyl)chroman-2-yl)-2,2-dimethylpropanoate], the “TR-FRET Assay Max Response” value is “*** (a value in the range of greater than 150 to 200)”. As for `CCOC(=O)C(C)(C)CC1CC(S(=O)(=O)c2ccc(F)c(OC)c2)c2cc(OCc3c(F)cccc3Cl)ccc2O1` (centres unmarked) [Example 185, Ethyl 3-(6-((2-chloro-6-fluorobenzyl)oxy)-4-((4-fluoro-3-methoxyphenyl)sulfonyl)chroman-2-yl)-2,2-dimethylpropanoate], the “TR-FRET Assay Max Response” value is recorded as “** (a value in the range of greater than 90 to 150)”. For `CNC(=O)N[C@@H]1Cc2ccc(/C=C(\C)c3c(F)cccc3Cl)cc2N(S(=O)(=O)c2cccc(C(F)(F)F)c2)[C@@H]1C` [Example 145, 1-((2R,3R)-7-((E)-2-(2-Chloro-6-fluorophenyl)prop-1-en-1-yl)-2-methyl-1-((3-(trifluoromethyl)phenyl)sulfonyl)-1,2,3,4-tetrahydroquinolin-3-yl)-3-methylurea], the “TR-FRET Assay Max Response” value is “** (a value in the range of greater than 90 to 150)”.

As to `COc1cc(S(=O)(=O)N2c3cc(OCc4c(F)cccc4Cl)ccc3C[C@@H](CO)[C@H]2C)ccc1F` [Example 151, ((2R,3R)-7-((2-Chloro-6-fluorobenzyl)oxy)-1-((4-fluoro-3-methoxyphenyl)sulfonyl)-2-methyl-1,2,3,4-tetrahydroquinolin-3-yl)methanol], the “TR-FRET Assay Max Response” value is on record as “** (a value in the range of greater than 90 to 150)”. `COC(=O)C(C)(C)C[C@@H]1Cc2ccc(/C=C(\C)c3c(F)cccc3Cl)cc2N(S(=O)(=O)c2ccc(F)c(OC)c2)C1` [Example 154B, methyl (S,E)-3-(7-(2-(2-chloro-6-fluorophenyl)prop-1-en-1-yl)-1-((4-fluoro-3-methoxyphenyl)sulfonyl)-1,2,3,4-tetrahydroquinolin-3-yl)-2,2-dimethylpropanoate]: the “TR-FRET Assay Max Response” value was “** (a value in the range of greater than 90 to 150)”.

Still in this test, the particulars now being: with 2 μM ursolic acid (RORγ antagonist); highest test concentration 10 μM.
Regarding `CCn1cc(S(=O)(=O)N2CC(C(=O)O)Oc3ccc(OCc4c(F)cccc4Cl)cc32)c(Cl)n1` (centres unmarked), the EC50 is < 500 nM.

Regarding `O=C(O)C1Cc2ccc(OCc3cc(C(F)(F)F)ccc3F)cc2N(S(=O)(=O)c2cccc(C(F)(F)F)c2)C1` (centres unmarked), the EC50 is < 500 nM. Turning to `O=C(O)C[C@H]1CN(S(=O)(=O)c2cccc(C(F)(F)F)c2)c2cc(NCc3c(F)cccc3Cl)ccc2O1`, the concentration for a half-maximal effect (EC50) was < 500 nM. Consider `CCn1cc(S(=O)(=O)N2CC(C(=O)O)Cc3ccc(/C=C(\C)c4c(F)cccc4Cl)cc32)c(Cl)n1` (centres unmarked), for which the EC50 is < 500 nM. On to `CC(=O)NC[C@H]1CN(S(=O)(=O)c2cccc(C(F)(F)F)c2)c2cc(NCc3c(F)cccc3Cl)ccc2O1`, for which the EC50 is < 500 nM. Take `O=C(O)C1Cc2ccc(OCc3cc(F)ccc3Cl)cc2N(S(=O)(=O)c2cccc(C(F)(F)F)c2)C1` (centres unmarked): the EC50 was < 500 nM. As for `O=C(O)C1Cc2ccc(OCc3ccc4ccccc4c3)cc2N(S(=O)(=O)c2cccc(C(F)(F)F)c2)C1` (centres unmarked), the concentration giving a half-maximal response (EC50) was > 10000 nM.

As for `COc1cc(S(=O)(=O)N2CC(C(=O)O)Cc3ccc(OCc4c(F)cccc4Cl)cc32)ccc1F` (centres unmarked), the EC50 is < 500 nM. Take `O=C(O)C1Cc2ccc(OCc3c(F)cccc3C(F)(F)F)cc2N(S(=O)(=O)c2cccc(C(F)(F)F)c2)C1` (centres unmarked): the EC50 is < 500 nM. As to `Cc1nn(C(F)F)cc1S(=O)(=O)N1CC(CO)Cc2ccc(OCc3c(F)cccc3Cl)cc21` (centres unmarked) [drawing 1601], the concentration giving a half-maximal response (EC50) was < 500 nM.
